Paper PMC10846046, “The mechanism of action of auranofin analogs in B. cenocepacia revealed by chemogenomic profiling” (Microbiology Spectrum, 2024)

Assays:
[1] = target: T1, TrxB (thioredoxin reductase) (Burkholderia cenocepacia, UniProt B4EBR9); test: DTNB reduction, absorbance at […] nm; type: biochemical
T1 construct: full gene in pET24b+, C-terminal 6xHis tag kept, E. coli BL21(DE3); Ni-NTA and size exclusion

[2] = target: T2, GOR (glutathione reductase) (Burkholderia cenocepacia, UniProt B4E8M8); test: NADPH consumption, absorbance at […] nm; type: biochemical; settings: GSSG as electron acceptor
T2 construct: full gene in pET-22+, C-terminal 6xHis tag kept, E. coli BL21(DE3)-Gold; purified as TrxB
T2 sequence (B4E8M8 1-451): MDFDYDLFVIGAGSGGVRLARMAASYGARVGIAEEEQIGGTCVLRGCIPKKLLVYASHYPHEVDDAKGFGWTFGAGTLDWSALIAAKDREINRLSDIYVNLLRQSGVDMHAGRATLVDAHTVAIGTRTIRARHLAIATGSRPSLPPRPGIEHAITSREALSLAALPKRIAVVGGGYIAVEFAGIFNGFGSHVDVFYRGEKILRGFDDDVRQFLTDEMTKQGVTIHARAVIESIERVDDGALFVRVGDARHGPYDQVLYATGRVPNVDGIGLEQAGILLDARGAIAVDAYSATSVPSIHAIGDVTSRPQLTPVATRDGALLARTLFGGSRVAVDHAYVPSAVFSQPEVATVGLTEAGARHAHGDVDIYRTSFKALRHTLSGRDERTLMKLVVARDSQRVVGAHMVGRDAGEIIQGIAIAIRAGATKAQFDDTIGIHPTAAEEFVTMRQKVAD

T1 sequence (B4EBR9 1-320): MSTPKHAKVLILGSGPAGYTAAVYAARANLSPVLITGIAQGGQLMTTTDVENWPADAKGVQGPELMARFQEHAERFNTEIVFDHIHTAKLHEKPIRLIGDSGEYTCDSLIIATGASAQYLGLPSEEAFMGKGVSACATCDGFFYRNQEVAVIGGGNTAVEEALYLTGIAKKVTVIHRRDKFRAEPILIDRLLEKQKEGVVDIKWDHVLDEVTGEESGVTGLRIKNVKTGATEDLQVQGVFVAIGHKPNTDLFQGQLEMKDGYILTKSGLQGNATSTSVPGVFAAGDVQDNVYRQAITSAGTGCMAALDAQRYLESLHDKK

Row | SMILES | DTNB reduction, absorbance at 412 nm ([1]; NADPH as electron source) | DTNB reduction, absorbance at 412 nm ([1]; DTNB as electron acceptor) | NADPH consumption, absorbance at 340 nm [2]
1 | O=C(O)c1cc(SSc2ccc([N+](=O)[O-])c(C(=O)O)c2)ccc1[N+](=O)[O-] [DTNB] | in the presence of substrate DTNB is reduced to TNB, with NADPH as a source | – | –
2 | NC(=O)C1=CN([C@@H]2O[C@H](COP(=O)(O)OP(=O)(O)OC[C@H]3O[C@@H](n4cnc5c(N)ncnc54)[C@H](OP(=O)(O)O)[C@@H]3O)[C@@H](O)[C@H]2O)C=CC1 [NADPH] | – | in the presence of substrate DTNB is reduced to TNB, with NADPH as a source | oxidized glutathione is reduced to reduced glutathione, with NADPH as a source of electrons
